Data as given in the supplement of paper PMC11451515.

Test system: SEM cells
Experiment: cell viability relative to DMSO control; higher = less cytotoxic
Details: 48 h
Summary of the method: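 Three leukemia lines were tested: NOMO1 and SEM at 500 cells/well and P12-Ichikawa at 1000 cells/well. Each was adapted for at least four passages in each medium and seeded in 5 μl in 1536-well plates, and library compounds in DMSO were pin-dosed from 47 μM to 0.79 nM in 11 threefold steps. After 48 h at 37°C, CellTiter-Glo One luminescence was read. Viability is a percentage relative to DMSO wells on each plate, with cell-free wells as background.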

**Q.** Which results are given for S=C1N\C=N/C2=C1[NH]C=N2?
**A.** cell viability (HPLM + 10% dialyzed FBS, 0.000781 µM): 91.2%; cell viability (HPLM + 10% dialyzed FBS, 0.00234 µM): 116%; cell viability (HPLM + 10% dialyzed FBS, 0.00702 µM): 136%; cell viability (HPLM + 10% dialyzed FBS, 0.0211 µM): 121%; cell viability (HPLM + 10% dialyzed FBS, 0.0632 µM): 131%; cell viability (HPLM + 10% dialyzed FBS, 0.19 µM): 126%; cell viability (HPLM + 10% dialyzed FBS, 0.569 µM): 124%; cell viability (HPLM + 10% dialyzed FBS, 1.71 µM): 105%; cell viability (HPLM + 10% dialyzed FBS, 5.12 µM): 106%; cell viability (HPLM + 10% dialyzed FBS, 15.4 µM): 90.6%; cell viability (HPLM + 10% dialyzed FBS, 46.1 µM): 81.7%; cell viability (RPMI 5 mM glucose + 10% FBS, 0.000781 µM): 104%; cell viability (RPMI 5 mM glucose + 10% FBS, 0.00234 µM): 119%; cell viability (RPMI 5 mM glucose + 10% FBS, 0.00702 µM): 144%; cell viability (RPMI 5 mM glucose + 10% FBS, 0.0211 µM): 119%; cell viability (RPMI 5 mM glucose + 10% FBS, 0.0632 µM): 132%; cell viability (RPMI 5 mM glucose + 10% FBS, 0.19 µM): 139%; cell viability (RPMI 5 mM glucose + 10% FBS, 0.569 µM): 108%; cell viability (RPMI 5 mM glucose + 10% FBS, 1.71 µM): 93.3%; cell viability (RPMI 5 mM glucose + 10% FBS, 5.12 µM): 79.5%; cell viability (RPMI 5 mM glucose + 10% FBS, 15.4 µM): 73.2%; cell viability (RPMI 5 mM glucose + 10% FBS, 46.1 µM): 66.4%; cell viability (RPMI 5 mM glucose + 10% dialyzed FBS, 0.000781 µM): 105%; cell viability (RPMI 5 mM glucose + 10% dialyzed FBS, 0.00234 µM): 119%; cell viability (RPMI 5 mM glucose + 10% dialyzed FBS, 0.00702 µM): 138%; cell viability (RPMI 5 mM glucose + 10% dialyzed FBS, 0.0211 µM): 106%; cell viability (RPMI 5 mM glucose + 10% dialyzed FBS, 0.0632 µM): 134%; cell viability (RPMI 5 mM glucose + 10% dialyzed FBS, 0.19 µM): 119%; cell viability (RPMI 5 mM glucose + 10% dialyzed FBS, 0.569 µM): 91.3%; cell viability (RPMI 5 mM glucose + 10% dialyzed FBS, 1.71 µM): 56.7%; cell viability (RPMI 5 mM glucose + 10% dialyzed FBS, 5.12 µM): 48.5%; cell viability (RPMI 5 mM glucose + 10% dialyzed FBS, 15.4 µM): 42.4%; cell viability (RPMI 5 mM glucose + 10% dialyzed FBS, 46.1 µM): 33.7%
